Data from paper PMC3198402 (PLoS ONE, 2011).
Where no end group is shown, it is not given here.

biological target: HLA-A*02:01 (Homo sapiens, UniProt P04439, D140Y/D185E/D98H/E176V/E277Q/G131W/G231S/I119V/I121R/I166T/I218V/L300P/L318F/N151K/N90K/P208A/P217A/Q86G/Q94H/R138H/R169H/T345S); assay: biochemical; assay type: binding

| Sequence | Kd [µM] |
| --- | --- |
| ILTDGPERV [Peptide 14602] | 0.004 |
| KMDIGVPLL [Peptide 14598] | 0.001 |
| LLLTLLATV [Peptide 14597] | 0.043 |
| PLNEGIMAV [Peptide 14600] | 0.048 |
| SMVNGVVKL [Peptide 14605] | 0.025 |
| SMVNGVVRL [Peptide 14599] | 0.002 |
| TLYAVATTV [Peptide 14606] | 0.001 |
| VLNPYMPTV [Peptide 14604] | 0.001 |
| YMPSVVETL [Peptide 14607] | 0.001 |

biological target: HLA-A*24:03 (Homo sapiens, UniProt P04439, D101N/D140Y/D185E/E176V/F33S/G103R/G107R/I119L/I121M/I306V/K335N/L105A/L180Q/L300P/N151K/N90K/Q86E/Q94H/R106L/R138H/R89G/T104I/T345S/V100E/Y123F); assay: biochemical; assay type: binding

| Sequence | Kd [µM] |
| --- | --- |
| GFLNEDHWF [Peptide 14615] | 0.034 |
| GFMNEDHWF [Peptide 14622] | 0.017 |
| MALVAFLRF [Peptide 14610] | 0.013 |
| TYGWNIVKL [Peptide 14623] | 0.076 |
| WYGMEIRPL [Peptide 14612] | 0.119 |
| WYMWLGARF [Peptide 14613] | 0.019 |
